Data: patent US10160747B2, “Compounds and methods for kinase modulation, and indications therefor” (Plexxikon Inc., priority 2016, dated 2018)

Experiments:
[1] = molecular target: T1, FLT3-D835Y (Homo sapiens, UniProt P36888, D835Y); assay: FLT3-D835Y recombinant enzyme kinase assay (AlphaScreen); type: biochemical; conditions: 8 pt, GMean
T1 construct: purchased Invitrogen PV3967
T1 sequence (P36888 27-993 D835Y): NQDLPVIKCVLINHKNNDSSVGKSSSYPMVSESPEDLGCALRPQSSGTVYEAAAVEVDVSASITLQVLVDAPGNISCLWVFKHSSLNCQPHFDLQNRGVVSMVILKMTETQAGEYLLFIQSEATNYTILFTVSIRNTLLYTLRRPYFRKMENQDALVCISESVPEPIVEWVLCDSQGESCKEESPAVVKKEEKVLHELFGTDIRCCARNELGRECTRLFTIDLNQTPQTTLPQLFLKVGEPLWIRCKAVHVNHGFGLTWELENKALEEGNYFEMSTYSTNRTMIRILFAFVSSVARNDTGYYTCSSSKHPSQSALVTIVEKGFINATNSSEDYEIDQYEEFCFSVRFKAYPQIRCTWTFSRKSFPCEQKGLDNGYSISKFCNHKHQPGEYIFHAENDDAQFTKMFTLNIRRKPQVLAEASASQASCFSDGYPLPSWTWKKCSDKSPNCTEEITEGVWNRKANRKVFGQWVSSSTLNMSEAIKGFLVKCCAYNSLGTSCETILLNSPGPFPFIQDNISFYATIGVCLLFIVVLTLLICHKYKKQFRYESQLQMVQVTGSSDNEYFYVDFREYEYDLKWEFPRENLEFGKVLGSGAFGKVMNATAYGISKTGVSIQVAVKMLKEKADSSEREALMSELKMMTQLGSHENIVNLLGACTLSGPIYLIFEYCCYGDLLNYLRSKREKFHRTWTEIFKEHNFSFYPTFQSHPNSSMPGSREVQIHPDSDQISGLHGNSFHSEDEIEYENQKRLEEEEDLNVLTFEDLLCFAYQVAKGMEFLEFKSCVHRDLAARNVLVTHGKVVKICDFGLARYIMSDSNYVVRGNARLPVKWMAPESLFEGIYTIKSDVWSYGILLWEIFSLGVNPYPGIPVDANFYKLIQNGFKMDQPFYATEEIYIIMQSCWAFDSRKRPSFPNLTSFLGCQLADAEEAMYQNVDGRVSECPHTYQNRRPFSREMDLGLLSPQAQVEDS
Summary of the method: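 Recombinant enzyme phosphorylated biotinylated poly(Glu4-Tyr) peptide (30 nM final) with ATP at 10 μM for FLT3-ITD and FLT3-D835Y or 100 μM for c-KIT. Phosphopeptide was detected by AlphaScreen with streptavidin donor and anti-phosphotyrosine (PY20) acceptor beads (10 μg/mL), read at 580 nm, for IC50 determination.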

[2] = test system: MOLM-14 F691L (endogenous FLT3 ITD and transfected FLT3 F691L); assay: MOLM-14 F691L cell proliferation assay (CellTiter-Glo); type: cell-based; conditions: Homo sapiens, MOLM-14, 72 h; 3 d growth, GMean
Summary of the method: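 MOLM-14 derivatives carrying D835Y or F691L, selected under escalating AC220, were seeded at 1×10^4 cells/well and exposed to an 8-point 1:3 compound series (1 to 0.00046 μM, 0.2% DMSO final) for three days at 37° C., 5% CO2. CellTiter-Glo luminescence (ATP content) versus concentration gave IC50.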

Structure (SMILES) | IC50 [1] [µM] | IC50 [2] [µM]
Cn1cc(Nc2ncc(-c3ccc(CC(=O)Nc4ccc(C(C)(C)C#N)nc4)c(F)c3)cn2)cn1 [Compound P-0108, N-[6-(1-cyano-1-methyl-ethyl)-3-pyridyl]-2-[2-fluoro-4-[2-[(1-methylpyrazol-4-yl)amino]pyrimidin-5-yl]phenyl]acetamide] | 0.0001 to 10 | 0.0001 to 10
Cn1cnc(Nc2ncc(-c3ccc(CC(=O)Nc4cc(C(C)(F)F)ccn4)c(F)c3)cn2)c1 [Compound P-0102, N-[4-(1,1-difluoroethyl)-2-pyridyl]-2-[2-fluoro-4-[2-[(1-methylimidazol-4-yl)amino]pyrimidin-5-yl]phenyl]acetamide] | 0.0001 to 10 | 0.0001 to 10
Cn1cnc(Nc2ncc(-c3ccc(CC(=O)Nc4cncc(C(C)(F)F)c4)c(F)c3)cn2)c1 [Compound P-0103, N-[5-(1,1-difluoroethyl)-3-pyridyl]-2-[2-fluoro-4-[2-[(1-methylimidazol-4-yl)amino]pyrimidin-5-yl]phenyl]acetamide] | 0.0001 to 10 | 0.0001 to 10
O=C(Cc1ccc(-c2cnc3[nH]c(-c4ccccc4)cc3c2)cc1F)Nc1ccnc(C(F)(F)F)c1 [Compound P-0004, 2-[2-fluoro-4-(2-phenyl-1H-pyrrolo[2,3-b]pyridin-5-yl)phenyl]-N-[2-(trifluoromethyl)-4-pyridyl]acetamide] | 0.0001 to 10 | 0.0001 to 10
Cn1cc(Nc2ncc(-c3ccc(CC(=O)Nc4ccc(C(F)(F)F)cn4)cc3)cn2)cn1 [Compound P-0109, 2-[4-[2-[(1-methylpyrazol-4-yl)amino]pyrimidin-5-yl]phenyl]-N-[5-(trifluoromethyl)-2-pyridyl]acetamide] | 0.0001 to 10 | 0.0001 to 10
Cn1cc(Nc2ncc(-c3ccc(CC(=O)Nc4ccc(C(F)(F)F)nc4)c(F)c3)cn2)cn1 [Compound P-0110, 2-[2-fluoro-4-[2-[(1-methylpyrazol-4-yl)amino]pyrimidin-5-yl]phenyl]-N-[6-(trifluoromethyl)-3-pyridyl]acetamide] | 0.0001 to 10 | 0.0001 to 10
Cn1cc(Nc2ncc(-c3ccc(CC(=O)Nc4cncc(C(C)(F)F)c4)cc3)cn2)cn1 [Compound P-0144, N-[5-(1,1-difluoroethyl)-3-pyridyl]-2-[4-[2-[(1-methylpyrazol-4-yl)amino]pyrimidin-5-yl]phenyl]acetamide] | 0.0001 to 10 | 0.0001 to 10
Cn1cc(Nc2ncc(-c3ccc(CC(=O)Nc4cccc(S(C)(=O)=O)c4)cc3)cn2)cn1 [Compound P-0155, 2-[4-[2-[(1-methylpyrazol-4-yl)amino]pyrimidin-5-yl]phenyl]-N-(3-methylsulfonylphenyl)acetamide] | 0.0001 to 10 | 0.0001 to 10
CCn1cc(Nc2ncc(-c3ccc(CC(=O)Nc4cncc(C(F)(F)F)c4)cc3)cn2)cn1 [Compound P-0166, 2-[4-[2-[(1-ethylpyrazol-4-yl)amino]pyrimidin-5-yl]phenyl]-N-[5-(trifluoromethyl)-3-pyridyl]acetamide] | 0.0001 to 10 | 0.0001 to 10
